Data set [1] deals with mouse GPR40 receptor. Details: method as in data on file, AstraZeneca. The conditions noted are these: mouse GPR40 overexpressing HEK293 cells, IP-One Tb HTRF; ref data on file, AstraZeneca; cited from earlier work.
Details of data set [2]: method as in NCT01609582. The conditions noted are these: oral dosing of 50 mg daily, individuals with Type 2 diabetes with cardiovascular risk factors, phase 3; ref NCT01609582; cited from earlier work.
In data set [3] the target is T1, FFAR1 (Rattus norvegicus, UniProt Q8K3T4).
T1 construct: 50–100 mg INS-1 xenografts were homogenized using a Polytron tissue homogenizer; from tissue; host or cells: INS-1 (rat insulinoma) xenograft tumours grown subcutaneously in Balbc nu/nu mice, homogenate
In words: In vitro radioligand binding in INS-1 xenograft tissue homogenate. The conditions noted are these: for off-target (non-displaceable) binding: 2 nM [3H]AZ1 or [3H]AZ2, 4 nM [3H]TAK-875, 10 µM unlabeled ligand for non-specific binding; for specific bound radiolabeled ligand (FFAR1 density): 2 nM radiolabeled ligand. As to the method: Rat insulinoma cell line INS-1 xenografts, explanted from immunodeficient mice postmortem, were used as a model of beta cells. Briefly, approximately 2 million INS-1 cells were injected subcutaneously in the right flank of Balbc nu/nu mice. Tumor growth was monitored by palpation, and when tumor diameter was 10 mm, the animals were euthanized and the INS-1 tumor explanted.
(§1) Isolated endocrine (75–95% islet purity) and exocrine tissues were homogenized in ice-cold 0.32 M sucrose by hand using a Dounce glass homogenizer to a final concentration of 6 mg/ml. 50–100 mg INS-1 xenografts were homogenized using a Polytron tissue homogenizer (Polytron® PT 3000, Kinematica AG, Littau-Luzern, Switzerland) in ice-cold 0.32 M sucrose at a concentration of 6 mg/ml and then by hand using a Dounce glass homogenizer. Protein concentration was determined using Bio-Rad Protein Assay (Bio-Rad Laboratories, Hercules, CA) with bovine serum albumin as standard. Aliquots of the homogenates were stored at −80 °C until used.
(§2) One milligram of homogenized endocrine and exocrine tissue and 2 mg insulinoma tissue was incubated for 2 h at room temperature with 2 nM [^3H]AZ1 or 2 nM [^3H]AZ2 and PBS in a final incubation volume of 1 ml. Two milligram insulinoma tissue was incubated for 2 h at room temperature with 4 nM [^3H]TAK-875 and 50 mM TRIS (pH 7.4) in a final incubation volume of 1 ml. All three ligands were dissolved in ethanol. 10 µM of unlabeled AZ1 or TAK-875 was added for determination of non-specific binding. The samples were filtered using a Brandel M-48 cell harvester with Whatman GF/C filter (presoaked with PBS or 50 mM TRIS) and washed four times with 3 ml PBS or 50 mM TRIS (room temperature). Filters were put into scintillation vials, dried for 30 min before adding 10 ml Ultima Gold scintillation fluid (Perkin Elmer, Waltham, MA). The filters were shaken for 60 min and then counted in a β-counter (Packard Scintillator Tri-Carb 2100TR). The K d and B max values for [^3H]AZ1 binding were determined using concentrations of the tritiated ligand from 1 to 20 nM. All assay concentrations were replicated in triplicate, both total binding and non-specific binding.
(§3) The specific binding for each concentration of radiolabeled ligand was calculated by subtracting the non-specific binding (average of three replicates) from the total binding (average of three replicates), and expressed as fmol or pmol/mg protein. The specific binding data were analyzed with curve-fitting software (GraphPad Prism version 5.04) to obtain K d and B max values.

Data set [4] has as its target T2, FFAR1 (Homo sapiens, UniProt O14842). The experiment in a line: In vitro radioligand binding and saturation binding in human exocrine pancreatic tissue homogenate. Details: Isolated endocrine (75–95% islet purity) and exocrine tissues were homogenized in ice-cold 0.32 M sucrose; from tissue; host or cells: human exocrine pancreatic tissue, homogenate. The settings on record: for receptor specific binding: human pancreatic exocrine tissue, 2 nM labeled ligand. The procedure:
(§4) Isolated pancreatic islets and exocrine tissue were obtained within the Nordic network for Clinical Islet Transplantation laboratory in Uppsala, Sweden. The use of human tissue was approved by the Uppsala Ethical Review Board (#2011/473, #Ups 02-577).
as §1, §2, §3

In data set [5] the target is T2, FFAR1. In words: In vitro radioligand binding and saturation binding in human islets of Langerhans homogenate. Also noted: Isolated endocrine (75–95% islet purity) and exocrine tissues were homogenized in ice-cold 0.32 M sucrose; from tissue; host or cells: human isolated pancreatic islets (75–95% purity), homogenate. The conditions noted are these: for islet-to-exocrine ratio: human islets vs human exocrine tissue; for FFAR1 density by specific binding: isolated human islets of Langerhans. The procedure:
as §4, §1, §2, §3

The mark [6] stands for this setting: human exocrine tissue, representative saturation binding experiment (Fig. 5b).
The mark [7] stands for this setting: human islets, representative saturation binding experiment (Fig. 5a).

SMILES strings stand for the structures. Entries after “also recorded” stand apart in the source; their conditions may differ.

T2 sequence (O14842 whole entry): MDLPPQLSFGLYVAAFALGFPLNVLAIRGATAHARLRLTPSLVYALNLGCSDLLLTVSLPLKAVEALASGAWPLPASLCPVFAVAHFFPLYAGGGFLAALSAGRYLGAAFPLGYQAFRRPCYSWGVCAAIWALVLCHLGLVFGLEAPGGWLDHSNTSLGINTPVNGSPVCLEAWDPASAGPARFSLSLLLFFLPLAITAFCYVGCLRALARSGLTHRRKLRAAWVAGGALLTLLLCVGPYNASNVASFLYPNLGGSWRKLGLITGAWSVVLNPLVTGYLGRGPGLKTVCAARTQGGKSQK
T1 sequence (Q8K3T4 whole entry): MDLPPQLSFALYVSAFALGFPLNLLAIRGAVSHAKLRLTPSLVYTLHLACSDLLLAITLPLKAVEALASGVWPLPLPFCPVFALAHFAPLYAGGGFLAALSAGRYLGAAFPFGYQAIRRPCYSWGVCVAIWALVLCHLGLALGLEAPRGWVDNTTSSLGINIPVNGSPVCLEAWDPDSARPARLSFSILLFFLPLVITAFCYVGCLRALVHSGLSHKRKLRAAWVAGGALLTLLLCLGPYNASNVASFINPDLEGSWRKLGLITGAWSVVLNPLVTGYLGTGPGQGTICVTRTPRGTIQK

Turning to `Cc1cc(OCCCS(C)(=O)=O)cc(C)c1-c1cccc(COc2ccc3c(c2)OC[C@H]3CC(=O)O)c1` [TAK-875, fasiglifam], the EC50 in data set [1] is more than 37500 nM. For the same compound, the side effects entry in data set [2] was “suspected hepatic toxic side effects”.
On to `[3H]c1cc([3H])c(OCc2nc(-n3cc(C)cn3)nc(N3CCOCC3)c2[3H])cc1F` [[^3H]AZ1], for which, in data set [3], the “off-target (non-displaceable) binding” value is “decreased; also recorded: least” and the “specific bound radiolabeled ligand (FFAR1 density)” value stood at 132 fmol/mg protein. Further, the specific binding result in data set [3] (incubation dose 2 nM) is on record as “approximately 50%”. Moreover, in data set [4] (setting [6]), the Bmax worked out at 15.8 pmol/mg protein and binding was put at a Kd of 26.4 nM. Moreover, the Kd in data set [4] (human exocrine tissue, saturation binding 1 to 20 nM, n = 5, mean ± SEM) was 19.7 ± 8.4 nM. This compound displayed a B max in data set [4] (human exocrine tissue, saturation binding, n = 5, mean ± SEM) of 13.6 ± 2.5 pmol/mg protein. Also, the receptor specific binding result in data set [4] is recorded as “below 1000 fmol/mg protein”. Further, in data set [5] (2 nM labeled ligand), the “higher FFAR1 binding in human islets compared to human exocrine tissue” value turned out to be 30%, the islet-to-exocrine ratio worked out at 1.3 and the “FFAR1 density by specific binding” value was “approximately 1150 fmol/mg protein”. In data set [5] (human islets vs exocrine tissue), the “non-specific binding in different pancreatic compartments” value is “little difference”. In data set [5] (setting [7]), this compound had a Bmax of 6.3 pmol/mg protein and a dissociation constant (Kd) of 15.8 nM. Besides, in data set [5] (human islets, saturation binding 1 to 20 nM, n = 3, mean ± SEM), binding was characterised by a dissociation constant (Kd) of 10.6 ± 1.5 nM. The B max in data set [5] (human islets, saturation binding, n = 3, mean ± SEM) came to 7.0 ± 2.0 pmol/mg protein.
Take `[3H]c1cc([3H])c(OCc2nc(-n3cc(C)cn3)nc(N3CCOCC3)c2[3H])cc1Cl` [[^3H]AZ2]: in data set [3], the “off-target (non-displaceable) binding” value is recorded as “decreased” and the “specific bound radiolabeled ligand (FFAR1 density)” value turned out to be 177 fmol/mg protein. The receptor specific binding result in data set [4] is on record as “below 1000 fmol/mg protein”. Besides, in data set [5] (2 nM labeled ligand), the islet-to-exocrine ratio was 1.65 and the “FFAR1 density by specific binding” value was “approximately 1600 fmol/mg protein”.
With `[3H]c1cc2c(c([3H])c1OCc1cccc(-c3c(C)cc(OCCCS(C)(=O)=O)c([3H])c3C)c1)OC[C@H]2CC(=O)O` [[^3H]TAK-875, reference compound], the “off-target (non-displaceable) binding” value in data set [3] was “high non-specific off-target binding; also recorded: most off-target binding”. For the same compound, the “measurement of FFAR1 density” value in data set [3] (4 nM [3H]TAK-875) was “severely underestimated”.

The values are drawn from PMC5486603, “Toward molecular imaging of the free fatty acid receptor 1” (Acta Diabetologica, 2017).
